Read-outs that look alike come from different tables or passages of the source.
What was measured:
[1] = Brain pharmacokinetics of CBD and THC after single oral dose of Cannabis sativa extract; conditions: for mean concentration over time: Table 7; for AUC(0-t): AUC0–24, brain
[2] = Whole-blood pharmacokinetics of CBD and THC after single oral dose of Cannabis sativa extract; conditions: for CBD levels in whole blood: range of levels; for concentration at 0.5 h / concentration at 1 h / concentration at 2 h / concentration at 4 h / concentration at 6 h / concentration at 24 h / AUC(0-t) / Cmax / MRT / Tmax / CL / Vd: whole blood; for concentration at 0.5 h / concentration at 1 h / concentration at 2 h / concentration at 4 h / concentration at 6 h / concentration at 24 h: oral; for AUC(0-t): AUC0–24, whole blood
[3] = cited from earlier work
[4] = mice; oral CBD 120 mg/kg in Cremophor; cited from earlier work
[5] = 24 volunteers, 0.078 mg/kg CBD + […] THC, cited from earlier work
[6] = rats; oral CBD 120 mg/kg in Cremophor; cited from earlier work
[7] = 12 healthy volunteers; chocolate cookies with 0.57 mg/kg CBD + 0.28 mg/kg THC; after 1.5–3 h; cited from earlier work
[8] = male, Wistar, rat, brain, po, 30 mg/kg, Cremophor, single oral dose of extract 30 mg/kg
[9] = male, Wistar, rat, brain, po, 30 mg/kg, Rapae oleum, single oral dose of extract 30 mg/kg
[10] = male, Wistar, rat, 30 mg/kg, Mean Concentration ± SD, blood, Rapae oleum, single oral dose of extract 30 mg/kg
[11] = male, Wistar, rat, 30 mg/kg, Mean Concentration, blood, Cremophor, single oral dose of extract 30 mg/kg
[12] = male, Wistar, rat, 30 mg/kg, mean concentration over time, Blood/Cremophor, single oral dose of extract 30 mg/kg, Table 7
[13] = male, Wistar, rat, 30 mg/kg, mean concentration over time, Blood/Rapae Oleum, single oral dose of extract 30 mg/kg, Table 7
[14] = male, Wistar, rat, po, 30 mg/kg, Cremophor, single oral dose of extract 30 mg/kg
[15] = male, Wistar, rat, po, 30 mg/kg, Rapae oleum, single oral dose of extract 30 mg/kg
[16] = Cremophor, single oral dose of extract 30 mg/kg
[17] = Rapae oleum, single oral dose of extract 30 mg/kg
[18] = 1 h after gelatin capsules with extract

C=C(C)[C@@H]1CCC(C)=C[C@H]1c1c(O)cc(CCCCC)cc1O [CBD, cannabidiol]
mean concentration over time ([1]; Brain/Cremophor, 0.5 h, single oral dose of extract 30 mg/kg): 274.994
mean concentration over time ([1]; Brain/Cremophor, 1 h, single oral dose of extract 30 mg/kg): 213.491
mean concentration over time ([1]; Brain/Cremophor, 2 h, single oral dose of extract 30 mg/kg): 81.1135
mean concentration over time ([1]; Brain/Cremophor, 4 h, single oral dose of extract 30 mg/kg): 52.1185
mean concentration over time ([1]; Brain/Cremophor, 6 h, single oral dose of extract 30 mg/kg): 57.7145
mean concentration over time ([1]; Brain/Cremophor, 24 h, single oral dose of extract 30 mg/kg): 3.604
mean concentration over time ([1]; Brain/Rapae oleum, 0.5 h, single oral dose of extract 30 mg/kg): 23.327
mean concentration over time ([1]; Brain/Rapae oleum, 1 h, single oral dose of extract 30 mg/kg): 65.391
mean concentration over time ([1]; Brain/Rapae oleum, 2 h, single oral dose of extract 30 mg/kg): 301.388
mean concentration over time ([1]; Brain/Rapae oleum, 4 h, single oral dose of extract 30 mg/kg): 263.466
mean concentration over time ([1]; Brain/Rapae oleum, 6 h, single oral dose of extract 30 mg/kg): 59.650
mean concentration over time ([1]; Brain/Rapae oleum, 24 h, single oral dose of extract 30 mg/kg): 9.797
Kp ([1]; male, Wistar, rat, brain / whole blood, po, 30 mg/kg, AUCbrain:AUC whole blood (AUC0–24 ratio), Cremophor, single oral dose of extract 30 mg/kg): 0.95
Kp ([1]; male, Wistar, rat, brain / whole blood, po, 30 mg/kg, AUCbrain:AUC whole blood (AUC0–24 ratio), Rapae oleum, single oral dose of extract 30 mg/kg): 1.54
concentration at 0.5 h ([1]; male, Wistar, rat, brain, oral, 30 mg/kg, Mean Concentration, Cremophor, 0.5 h, single oral dose of extract 30 mg/kg): 275 ± 104 ng/g
concentration at 1 h ([1]; male, Wistar, rat, brain, oral, 30 mg/kg, Mean Concentration, Cremophor, 1 h, single oral dose of extract 30 mg/kg): 213 ± 66.1 ng/g
concentration at 2 h ([1]; male, Wistar, rat, brain, oral, 30 mg/kg, Mean Concentration, Cremophor, 2 h, single oral dose of extract 30 mg/kg): 81.1 ± 23.4 ng/g
concentration at 4 h ([1]; male, Wistar, rat, brain, oral, 30 mg/kg, Mean Concentration, Cremophor, 4 h, single oral dose of extract 30 mg/kg): 52.1 ± 12.2 ng/g
concentration at 6 h ([1]; male, Wistar, rat, brain, oral, 30 mg/kg, Mean Concentration, Cremophor, 6 h, single oral dose of extract 30 mg/kg): 57.7 ± 25.9 ng/g
concentration at 24 h ([1]; male, Wistar, rat, brain, oral, 30 mg/kg, Mean Concentration, Cremophor, 24 h, single oral dose of extract 30 mg/kg): 3.6 ± 0.493 ng/g
Tmax ([1]; male, Wistar, rat, brain, po, 30 mg/kg): 2 h
AUC(0-t) [1, 8]: 943 ng·h/mL
AUC(0-t) [1, 9]: 1990 ng·h/mL
Cmax [1, 8]: 275 ng/g
Cmax [1, 9]: 301 ng/g
MRT [1, 8]: 6.19 h
MRT [1, 9]: 7.76 h
Kp ([1]; male, Wistar, rat, brain/whole blood, oral, 30 mg/kg, brain/whole-blood ratio, Cremophor, present study): 2.29
CBD levels in whole blood ([2]; Cremophor): 1.43 to 231.43 ng/mL
concentration at 0.5 h [2, 10]: 26.9 ± 21.5 ng/g
concentration at 1 h [2, 10]: 107 ± 51 ng/g
concentration at 2 h [2, 10]: 334 ± 139 ng/g
concentration at 4 h [2, 10]: 154 ± 146 ng/g
concentration at 6 h [2, 10]: 37.6 ± 11.3 ng/g
concentration at 24 h [2, 10]: 2.76 ± 2.12 ng/g
concentration at 0.5 h [2, 11]: 120 ± 93.5 ng/g
concentration at 1 h [2, 11]: 109 ± 35.4 ng/g
concentration at 2 h [2, 11]: 46.5 ± 15.7 ng/g
concentration at 4 h [2, 11]: 35.1 ± 4.71 ng/g
concentration at 6 h [2, 11]: 31.4 ± 9.28 ng/g
concentration at 24 h [2, 11]: 12.3 ± 18 ng/g
concentration at 0.5 h [2, 12]: 120 ng/mL
concentration at 1 h [2, 12]: 109 ng/mL
concentration at 2 h [2, 12]: 46.5 ng/mL
concentration at 4 h [2, 12]: 35.1 ng/mL
concentration at 6 h [2, 12]: 31.4 ng/mL
concentration at 24 h [2, 12]: 12.3 ng/mL
concentration at 0.5 h [2, 13]: 26.9 ng/mL
concentration at 1 h [2, 13]: 107 ng/mL
concentration at 2 h [2, 13]: 334 ng/mL
concentration at 4 h [2, 13]: 154 ng/mL
concentration at 6 h [2, 13]: 37.6 ng/mL
concentration at 24 h [2, 13]: 2.76 ng/mL
AUC(0-t) [2, 14]: 988 ng·h/mL
AUC(0-t) [2, 15]: 1290 ng·h/mL
Cmax [2, 14]: 120 ng/mL
Cmax [2, 15]: 334 ng/mL
MRT [2, 14]: 12 h
MRT [2, 15]: 4.03 h
Tmax ([2]; male, Wistar, rat, po, 30 mg/kg, Tmax, Rapae oleum, single oral dose of extract 30 mg/kg): 2 h
CBD levels in whole blood ([2]; oil (Rapae oleum)): 1.06 to 588.03 ng/mL
time concentrations were detectable after administration ([2]; single oral dose of extract 30 mg/kg): up to 24 h
CL [2, 16]: 7.75 L/h
Tmax [2, 16]: 0.5 h
Vd [2, 16]: 69.66 L
CL [2, 17]: 5.85 L/h
Vd [2, 17]: 28.29 L
peak concentration in the blood ([3]; oral CBD 120 mg/kg in Cremophor, at 2 h): 2 µg/mL
peak concentration in the blood ([3]; oral CBD 120 mg/kg in Solutol, at 6 h): 3.2 µg/mL
brain peak CBD concentration [4]: 1.3 µg/g
peak whole-blood concentration [4]: ~2 µg/mL
levels in whole blood (average) [5, 18]: 0.93 ng/mL
levels in whole blood (range) [5, 18]: 0.3 to 2.6 ng/mL
time detectable after administration ([5]; gelatin capsules with extract): 3 to 4 h
brain peak CBD concentration [6]: 8.6 µg/g
peak whole-blood concentration [6]: ~2 µg/mL
whole-blood concentration [7]: about 5 ng/mL

— publication PMC10304291, “THC-Reduced Cannabis sativa L.—How Does the Solvent Determine the Bioavailability of Cannabinoids Given Orally?” (Nutrients, 2023)
